Laboratory results published in patent US20240408064A1, “RAS INHIBITORS, COMPOSITIONS AND METHODS OF USE THEREOF” (GENETOLEAD INC., priority 2021, published 2024).

Columns and labels:
HRas^G12V [1] = target: T1, HRas^G12V (Homo sapiens (Human), UniProt P01112, G12V); assay: 19F DLB (ligand-observed 19F NMR) score; type: binding; design: scale not given here
Description: (§1) All NMR experiments were collected using 3 mm NMR tubes on a 600 MHz Bruker Avance III spectrometer equipped with a QCI helium cryoprobe and a SampleJet sample changer. The buffer used for NMR experiments was 25 mM sodium phosphate pH 7.4, 150 mM NaCl, 5 mM MgCl2, 1 mM TCEP-d16, 10% D2O. Data were processed using Bruker TopSpin.
(§2) Since the fragment library was curated using phosphate buffer, 25 mM sodium phosphate pH 7.4, 150 mM NaCl, 5 mM MgCl2, 1 mM TCEP-d16, 10% D2O Fresh TCEP was used for experiments. Screening was performed using ^1H-decoupled 1D ^19F experiment Bruker experiment (zgfhigqn.2) with 64 scans and a relaxation delay of 5 seconds. 50 μM HRas^G12V and 240 μM of each fragment in pools (mixtures) were used.
Hit confirmation was performed using the same ^19F experiment as the screen. Ligand-observed 1D ^1H, protein-observed 1D ^1H, ^1H T2-CPMG as well as Saturation Transfer Difference (STD) experiments were also run on the same samples. Ligand-observed 1D ^1H was run using the standard Bruker sequence with excitation sculpting (zgesgp) with a relaxation delay of 10 seconds and 16 scans per spectrum. Protein-observed 1D ^1H was performed using the same sequence with a relaxation delay of 1 second and 256 scans in order to increase the signal-to-noise of the protein resonances, while keeping the experimental time relatively short. The ^1H T2-CPMG experiment employed a modified version of the Bruker 1D ^1H zgesgp experiment with the addition of a CPMG pulse train after the first 90° excitation pulse. Total duration for each spin echo was fixed at 1 ms (τ=500 μs), while the number of echoes in the pulse train was varied according to the total time (T). The number of scans for each spectrum was 4 and eight delay times were run on each sample, ranging from 1 ms to 800 ms. […]

HRas^G12V [2] = target: T1, HRas^G12V; assay: 19F T2-CPMG NMR score; type: binding
Description: as §1, §2
Hit confirmation was performed using the same ^19F experiment as the screen. Ligand-observed 1D ^1H, protein-observed 1D ^1H, ^1H T2-CPMG as well as Saturation Transfer Difference (STD) experiments were also run on the same samples. Ligand-observed 1D ^1H was run using the standard Bruker sequence with excitation sculpting (zgesgp) with a relaxation delay of 10 seconds and 16 scans per spectrum. Protein-observed 1D ^1H was performed using the same sequence with a relaxation delay of 1 second and 256 scans in order to increase the signal-to-noise of the protein resonances, while keeping the experimental time relatively short. The ^1H T2-CPMG experiment employed a modified version of the Bruker 1D ^1H zgesgp experiment with the addition of a CPMG pulse train after the first 90° excitation pulse. Total duration for each spin echo was fixed at 1 ms (τ=500 μs), while the number of echoes in the pulse train was varied according to the total time (T). The number of scans for each spectrum was 4 and eight delay times were run on each sample, ranging from 1 ms to 800 ms.
Because of its power to probe the intrinsically weak interactions (Kd) between targets and low-molecular weight fragments, NMR fragment-based lead discovery (FBLD) is a very useful biophysical method in early stage drug discovery, especially for challenging target proteins; including those with shallow binding pockets. Since FBLD screens are performed using low-molecular weight compounds (fragments) with lower structural complexity, the same chemical space can be covered using a smaller number of drug-like fragments versus use of large libraries of higher-molecular weight lead-like compounds as in high throughput screening (HTS) campaigns. Therefore, FBLD has a much higher hit rate than HTS using only several hundred to several thousand compounds in comparison with approximately 1 million compounds for HTS. Also, the small size of the compounds screened in FBLD means a better chance to fully match the interactions with small or transient pockets within the target protein, where these less tractable pockets cannot be accessed with standard classical HTS methods. […] We expect this methodology to be more advantageous than classical HTS methods for expediting the time from hit to lead (H2L) and allows for rapid access to high quality leads with lower attrition rates in subsequent lead optimization (LO) campaigns toward pre-clinical candidate selection. FBLD screening by NMR involves a “consensus binding” approach where several distinct NMR experiments (DLB, STD, CPMG) are applied along with a free-state aggregation detection method (T2-CPMG) to rank the compounds for their affinity to the receptor (HRAS in this case) whilst simultaneously monitoring the solution behavior and critical quality attributes of each compound. The latter helps to eliminate artifact binders which are highly problematic. We performed a fluorine screen involving 461 compounds that were derived from a highly curated fragment library. Moreover, two-dimensional ^15N HSQC NMR was also used to validate ligand-binding sites on the target protein. […]

T1 sequence (P01112 1-166 G12V): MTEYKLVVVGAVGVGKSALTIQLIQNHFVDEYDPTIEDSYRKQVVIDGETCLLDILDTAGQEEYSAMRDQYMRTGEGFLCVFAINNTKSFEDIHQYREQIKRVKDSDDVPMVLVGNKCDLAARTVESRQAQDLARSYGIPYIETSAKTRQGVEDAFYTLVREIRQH

Row | Compound | 19F DLB Score (HRas^G12V [1]) | 19F T2-CPMG Score (HRas^G12V [2])
1 | O=C(Cc1c[nH]c2cc(F)ccc12)Nc1ncccn1 [Compound 10078, 2-(6-fluoro-1H-indol-3-yl)-N-(pyrimidin-2-yl) acetamide] | 2.07 | 11.04
2 | COC1CN(C(=O)Cc2c[nH]c3cc(F)ccc23)C1 [Compound 10081] | 2.15 | 15.91
3 | O=C(CN1CCC1)c1c[nH]c2cc(F)ccc12 [Compound 10085, 2-(azetidin-1-yl)-1-(6-fluoro-1H-indol-3-yl) ethan-1-one] | 2.43 | 21.45
4 | COC(=O)C1CN(C(=O)Cc2c[nH]c3cc(F)ccc23)C1 [Compound 10087, methyl 1-(2-(6-fluoro-1H-indol-3-yl)acetyl) azetidine-3-carboxylate] | 2.16 | 13.65
5 | COC(=O)C1CCN1C(=O)Cc1c[nH]c2cc(F)ccc12 (centres unmarked) [Compound 10088, Methyl 1-(2-(6-fluoro-1H-indol-3-yl)acetyl)azetidine-2-carboxylate] | 2.24 | 11.14
6 | COCC1(O)CN(C(=O)Cc2c[nH]c3cc(F)ccc23)C1 [Compound 10089, 2-(6-fluoro-1H-indol-3-yl)-1-(3-hydroxy-3-(methoxymethyl)azetidin-1-yl)ethan-1-one] | 1.89 | 9.84
7 | CC(=O)N[C@@H]1CCN(C(=O)Cc2c[nH]c3cc(F)ccc23)C1 [Compound 10091] | 1.93 | 7.83
8 | CC1CN(C)CCC1NC(=O)Cc1c[nH]c2cc(F)ccc12 (centres unmarked) [Compound 10099, N-(1,3-dimethylpiperidin-4-yl)-2-(6-fluoro-1H-indol-3-yl)acetamide] | 1.4 | 11.85
9 | CC(c1ccncc1)N(C)C(=O)Cc1c[nH]c2cc(F)ccc12 (centres unmarked) [Compound 10100, 2-(6-fluoro-1H-indol-3-yl)-N-methyl-N-(1-(pyridin-4-yl)ethyl)acetamide] | 1.73 | 9.66
10 | COCCOC1CN(C(=O)Cc2c[nH]c3cc(F)ccc23)C1 [Compound 10103, 2-(6-fluoro-1H-indol-3-yl)-1-(3-(2-methoxyethoxy)azetidin-1-yl) ethan-1-one] | 1.62 | 7.82
11 | O=C1CCCN(C(=O)Cc2c[nH]c3cc(F)ccc23)C1 [Compound 10109] | 3.45 | 15.4
12 | CC(C)COC1CCN(C(=O)Cc2c[nH]c3cc(F)ccc23)CC1 [Compound 10111, 2-(6-fluoro-1H-indol-3-yl)-1-(4-isobutoxypiperidin-1-yl) ethan-1-one] | 2.23 | 12.96
13 | O=C(C1CC1)C1CN(C(=O)Cc2c[nH]c3cc(F)ccc23)C1 [Compound 10115, 1-(3-(cyclopropanecarbonyl)azetidin-1-yl)-2-(6-fluoro-1H-indol-3-yl)ethan-1-one] | 1.89 | 12.42
14 | CC(C)C(=O)C1CN(C(=O)Cc2c[nH]c3cc(F)ccc23)C1 [Compound 10116] | 1.88 | 13.95
15 | CN1CCC(NC(=O)Cc2c[nH]c3cc(F)ccc23)C(C(=O)O)C1 (centres unmarked) [Compound 10117, 4-(2-(6-fluoro-1H-indol-3-yl)acetamido)-1-methylpiperidine-3-carboxylic acid] | 1.54 | 10.14
16 | O=C(Cc1c[nH]c2cc(F)ccc12)N1CCCC(O)C1 (centres unmarked) [Compound 10120] | 2.34 | 13.94
17 | O=C(Cc1c[nH]c2cc(F)ccc12)N1C[C@H]2CC[C@@H](C1)O2 [Compound 10122] | 1.68 | 9.62

Row | Compound | 19F DLB Score (HRas^G12V [1]) | 19F T2-CPMG Score (HRas^G12V [2])
18 | COC(C)C1CN(C(=O)Cc2c[nH]c3cc(F)ccc23)C1 (centres unmarked) [Compound 10124, 2-(6-fluoro-1H-indol-3-yl)-1-(3-(1-methoxyethyl)azetidin-1-yl)ethan-1-one] | 1.82 | 12.49
19 | O=C(O)[C@H]1CCCCN1C(=O)Cc1c[nH]c2cc(F)ccc12 [Compound 10125] | 1.56 | 10.15
20 | CCOC(=O)[C@@H]1CCCCN1C(=O)Cc1c[nH]c2cc(F)ccc12 [Compound 10126] | 4.22 | 13.7
21 | CCOC(=O)[C@H]1CCCCN1C(=O)Cc1c[nH]c2cc(F)ccc12 [Compound 10128] | 2.85 | 13.67
22 | O=C(O)C1CCN(C(=O)Cc2c[nH]c3cc(F)ccc23)CC1 [Compound 10129] | 1.27 | 3.92
23 | CCOC(=O)CC1CCN(C(=O)Cc2c[nH]c3cc(F)ccc23)CC1 [Compound 10130] | 2.09 | 12.1
24 | CC(O)C1CN(C(=O)Cc2c[nH]c3cc(F)ccc23)C1 (centres unmarked) [Compound 10131, 2-(6-fluoro-1H-indol-3-yl)-1-(3-(1-hydroxyethyl)azetidin-1-yl)ethan-1-one] | 2.17 | 20.77
25 | CCOC(=O)C1CCN(C(=O)Cc2c[nH]c3cc(F)ccc23)CC1 [Compound 10132] | 2.01 | 13.29
26 | COCC1(C)CN(C(=O)Cc2c[nH]c3cc(F)ccc23)C1 [Compound 10134, 2-(6-fluoro-1H-indol-3-yl)-1-(3-(methoxymethyl)-3-methylazetidin-1-yl)ethan-1-one] | 2.1 | 13.32
27 | CC(=O)C1CN(C(=O)Cc2c[nH]c3cc(F)ccc23)C1 [Compound 10138] | 1.98 | 14.25
28 | CC(=O)N[C@H]1CCCN(C(=O)Cc2c[nH]c3cc(F)ccc23)C1 [Compound 10139, (S)—N-(1-(2-(6-fluoro-1H-indol-3-yl)acetyl)piperidin-3-yl) acetamide] | 1.93 | 4.54
29 | CC1CN(C(=O)Cc2n[nH]c3cc(F)ccc23)C1 [Compound 10144, 2-(6-fluoro-1H-indazol-3-yl)-1-(3-methylazetidin-1-yl)ethan-1-one] | 1.93 | 9.44
30 | O=C1CN(C(=O)Cc2c[nH]c3cc(F)ccc23)CCN1 [Compound 10145] | 1.64 | 16.13
31 | CN1CCN(C(=O)Cc2c[nH]c3cc(F)ccc23)CC1=O [Compound 10146] | 1.56 | 9.75
32 | O=C(Cc1c[nH]c2cc(F)ccc12)N1CCO[C@@H](CO)C1 [Compound 10147, (R)-2-(6-fluoro-1H-indol-3-yl)-1-(2-(hydroxymethyl)morpholino) ethan-1-one] | 2.3 | 19.87
33 | O=C(Cc1c[nH]c2cc(F)ccc12)N1CCO[C@H](CO)C1 [Compound 10148] | 1.87 | 12.46
34 | COC[C@H]1CN(C(=O)Cc2c[nH]c3cc(F)ccc23)CCO1 [Compound 10154, (R)-2-(6-fluoro-1H-indol-3-yl)-1-(2-(methoxymethyl)morpholino)ethan-1-one] | 1.62 | 8.16
